Earlier results as cited in US12178851B2, “Methods for administering STING agonists” (GlaxoSmithKline Intellectual Property Development Limited, priority 2017, dated 2024).

Legend:
CT26 syngeneic model [1] = conditions: 20 daily i.v. doses of 20 mg/kg, dosed 4 h after injection of the tumor cells
CT26 syngeneic model [2] = test system: CT26 syngeneic model

Q: For Nc1nc2c(ncn2[C@@H]2O[C@@H]3COP(=O)(O)O[C@H]4[C@@H](O)[C@H](n5cnc6c(N)ncnc65)O[C@@H]4COP(=O)(O)O[C@@H]2[C@@H]3O)c(=O)[nH]1 [2′3′-cGAMP], which “efficacy in CT26 model” value (CT26 syngeneic model [1]) is on record?
A: Its value is “some efficacy”.

Q: What does the source list for Cc1ccc2c(=O)c3cccc(CC(=O)O)c3oc2c1C [DMXAA, 5,6-Dimethylxanthenone-4-Acetic Acid]?
A: maximally tolerated i.p. dose (CT26 syngeneic model [2]; mouse, in vivo, ip): ~99 µmol/kg; cytokine levels in tumor and blood (CT26 syngeneic model [2]; once at 500 ug/mouse i.p.): high cytokine levels both in the tumor and the blood; tumor growth inhibition (CT26 syngeneic model [2]; once at 500 ug/mouse i.p., established tumors): potently inhibits tumor growth, leading to cures in mice
